logP and logD data for 46 compounds are collected here from the SangsterLogP compilation.

Experiment in data set [1]: not given
The source holds these as a separate data set.

Experiment in data set [2]: not given
The source holds these as a separate data set.

Data set [3] can be described thus: method code SF-AS, from DOI: 10.1016/0223-5234(96)88239-0. Conditions: pH 2.0.
Data set [4] can be described thus: method code SF-AS, from DOI: 10.1007/s001280000002, PMID: 10757653.
Experiment in data set [5]: not given
The source holds these as a separate data set.

A short description of data set [6]: method code SF-RC, from DOI: 10.1248/cpb.39.104, PMID: 2049793. Conditions: pH 7.4.
Data set [7] is described as follows: method code SF-HPLC, from DOI: 10.1002/jps.2600841008, PMID: 8801331. Conditions: pH 3.1.
A short description of data set [8]: method code …, from Pirumyan, G.; Martiryan, A.; Skurlator, Yu.; Petrosyan, D.; Akhnazaryan, A.; Arutyunyan, V. (1988). Transformations of pyrazolone compounds for fish farming in aqueous medium. Chemical Journal of ….
Data set [9] in a line: method code SF-AS, from DOI: 10.1021/jf60177a051.
A short description of data set [10]: method code SF-AS, from DOI: 10.1016/s0021-9673(03)00617-4, PMID: 12830921.
Experiment in data set [11]: not given
This is another data set of the same source.

A short description of data set [12]: method code SF-RC, from DOI: 10.1111/j.1399-3054.1990.tb08712.x.
Data set [13] can be described thus: method code SF-RC, from PMID: 3382460. Particulars: pH 7.0.
Data set [14] can be described thus: method code SF, from DOI: 10.1055/s-0038-1624171, PMID: 6548017. Particulars: pH 7.4.
Data set [15] can be described thus: method code SF-AS, from DOI: 10.1016/s0090-9556(25)07961-9, PMID: 6130927. Conditions: pH 12.0.
Data set [16] is described as follows: method code SF-RC,AS, from DOI: 10.1021/es60170a013. Particulars: pH 8.7.
Data set [17] is described as follows: method code SF-GLC, from DOI: 10.1016/j.chemosphere.2013.04.065, PMID: 23732011.
Experiment in data set [18]: not given
The source holds these as a separate data set.

Data set [19] in a line: method code SF, from DOI: 10.1016/s0968-0896(00)00025-0, PMID: 10882003.
Data set [20] in a line: method code SF-HPLC, from DOI: 10.3109/03639045.2012.690417, PMID: 22670797.
Data set [21] in a line: method code SF-EPR, from DOI: 10.1007/bf01870789, PMID: 2549250. Particulars: pH 12.0.
Data set [22] is described as follows: method code SF-AS, from PMID: 301777.
Data set [23] is described as follows: method code SF-RC, from DOI: 10.1016/s0969-8051(00)00080-9, PMID: 10832080. Particulars: pH 13.0.
Data set [24] in a line: method code SF-RC, from DOI: 10.1023/a:1015825912542, PMID: 1808606. Particulars: pH 7.2.
Experiment in data set [25]: not given
This is another data set of the same source.

Experiment in data set [26]: not given
The source holds these as a separate data set.

Data set [27] can be described thus: method code SF-AS, from DOI: 10.1002/jps.2600620542, PMID: 4705706.
Experiment in data set [28]: not given
This is another data set of the same source.

Data set [29] in a line: method code SF-HPLC, from DOI: 10.1021/js970451q, PMID: 9687340. Conditions: pH 6.0.
A short description of data set [30]: method code SF-AS, from DOI: 10.1007/s00044-012-0399-x.
Data set [31] in a line: method code SF-AS, from PMID: 1705424. Conditions: pH 7.4.
The nature of data set [32]: method code SF-HPLC, from DOI: 10.1016/0006-2952(84)90322-8, PMID: 6704182.
Data set [33] in a line: method code SF-HPLC, from DOI: 10.1016/s0928-0987(98)00030-x, PMID: 9845810. Particulars: pH 7.4.
Data set [34] is described as follows: method code SF-TN, from DOI: 10.1002/ardp.19763091008, PMID: 1008678.
Data set [35] can be described thus: method code SF-HPLC, from DOI: 10.1016/s0223-5234(97)84356-5.
Experiment in data set [36]: not given
This is another data set of the same source.

Experiment in data set [37]: not given
The source holds these as a separate data set.

A short description of data set [38]: method code SF-AS, from DOI: 10.1021/js960328j, PMID: 9050798. Particulars: pH 6.6.
Experiment in data set [39]: not given
This is another data set of the same source.

Data set [40] in a line: method code G-GLC, from DOI: 10.1021/es00169a004.
Data set [41] is described as follows: method code SF-GLC, from DOI: 10.1021/es00171a006.
Data set [42] in a line: method code SF-GLC, from DOI: 10.1016/s0021-9673(00)81319-9.
Experiment in data set [43]: not given
This is another data set of the same source.

A short description of data set [44]: method code SF-HPLC, from DOI: 10.1002/jps.10112, PMID: 12115830. Conditions: pH 7.4.
A short description of data set [45]: method code SF, from DOI: 10.1177/1087057110396372, PMID: 21343602. Conditions: pH 7.4.

Each structure is given as a SMILES string.

Usually logP stands for the decadic logarithm of the partition coefficient of the neutral form, usually between octanol and water. Read a high logP as higher lipophilicity. `OC1(c2ccc(Cl)cc2)CCNCC1` gave a logP of 1.98. For `CCC(C)c1ccccc1OC(=O)NC` (stereo unspecified), the logP in data set [1] amounted to 2.8. Turning to `CC(C)NCC(O)c1ccc(Cl)c(Cl)c1` (stereo unspecified), the logP in [2] is 3.32.

A word on the logD: it is the decadic logarithm of the distribution of all forms, ionised or not, between an organic phase and buffer at a given pH. Lower therefore signals lower lipophilicity. For the compound `Cn1c(C(=O)O)cnc1C(=O)c1ccc([N+](=O)[O-])cc1`, the logD in data set [3] was found to be 2.14. `CCOC(=O)c1cccc(C(=O)OCC)n1` had a logP in data set [4] of 3. In turn, `C=CC(=O)OCC(CC)CCCC` (stereo unspecified) had a logP in [5] of 4.29. `CNC(=S)NN=C(C)C(C)(C)C(C)=NNC(=S)NC`: the logD in data set [6] amounted to 2.51. On to `O=C(O)CCCCc1ccccc1`, for which the logD in [7] turned out to be 2.73. For the compound `CC1(C)CC(=O)NN1C=NNc1ccccc1`, in data set [8], the logP stood at 0.26. With `Cc1nc(C)c(C(=O)Nc2ccccc2)s1`, the logP in data set [9] came out at 1.08. With `CCc1c(C)nc2ccccn2c1=O`, the logP in data set [10] stood at 1.58. Consider `Clc1cc(Cl)c(Oc2ccccc2)cc1Cl`, for which the logP in data set [11] came out at 5.44. Take `c1ccc(CNc2ncnc3[nH]cnc23)cc1`: the lipophilicity (logP) in data set [12] worked out at 1.57.

For `CNC(=O)OC1OC(=O)C2C3C=CC(C3)C12` (stereo unspecified), the logD in [13] is 0.63. As to `O=[N+]([O-])c1nccn1CCOc1ccc(I)cc1`, in data set [14], the pH-dependent lipophilicity (logD) came to 2.84. `CC(C)[C@@H](N)Cc1ccccc1` had a logD in data set [15] of 2.59. `Nc1ccc(-c2ccc(N)c(Cl)c2)cc1Cl` returned a logD in data set [16] of 3.51. Compound `C=CCOc1ccccc1OCC=C` yielded a logP in [17] of 2.7. For `c1cc2c3c(cccc3c1)CC2`, the logP in data set [18] worked out at 3.98. `Cc1[nH]c(=O)c(C#N)cc1-c1ccncc1` displayed a logP in data set [19] of 0.42. In the case of `CC(C)(C)c1ccc(/C=N/NC(N)=S)cc1`, in [20], the logP is 3.9. `CN(C)C1CC(C)(C)N(O)C(C)(C)C1` gave a logD in data set [21] of 1.13.

With `CCc1nc(N)nc(N)c1-c1ccc(Cl)c(Cl)c1`, in data set [22], the logP is 3.19. Turning to `CN1C2CCC1C(c1ccc(Cl)nc1)C2` (stereo unspecified), the logD in data set [23] amounted to 2.42. In the case of `CC(=O)NC(Cc1ccccc1)C(N)=O` (stereo unspecified), in [24], the logD came out at 0.05. As for `CCCCCCCCn1sc(Cl)c(Cl)c1=O`, in data set [25], the logP was found to be 4.9. In turn, `CCCCOC(=O)COc1cc(Cl)c(Cl)cc1Cl` yielded a logP in [26] of 4.81. For the compound `O=C(c1ccncc1)c1ccc(Cl)cc1`, the logP in data set [27] turned out to be 2.61. For the compound `CC(=O)c1ccc(C(C)C)cc1`, the logP in [28] was 2.98.

On to `COc1cc(C)nc(-n2nc(C)cc2OC)n1`, for which the logD in [29] was 1.35. In [30], `COC(=O)CN1Cc2ccccc2C1` yielded a logP of -0.03. The compound `CC(C)Cn1cnc2c1c(=O)n(C)c(=O)n2C` had a logD in [31] of 1.28.

With `CC(=O)Nc1ccn([C@@H]2O[C@H](CO)[C@@H](O)[C@@H]2O)c(=O)n1`, the logP in [32] is -1.35. With `Cc1ccc2c(c1)C(=O)N(CCO[N+](=O)[O-])CO2`, the logD in data set [33] worked out at 2.41. `CCNC(=O)C1C2CC3C(OC(=O)C31)C2O` (stereo unspecified): in data set [34], the logP is -0.35. As to `CC(=O)Nc1nc2c(ncn2COCCOC(C)=O)c(=O)[nH]1`, the logP in data set [35] was -0.83. `Nc1ccc(S(=O)(=O)Nc2cccc(Cl)c2Cl)cc1` had a logP in data set [36] of 2.62. As to `CCCCCCc1ccccc1`, the logP in data set [37] was found to be 5.24. In data set [38], `CCCS(=O)c1ccc2[nH]c(NC(=O)OC)nc2c1` (stereo unspecified) showed a logD of 1.27. `CCCOCCc1ccc(O)c(O)c1`: the logP in data set [39] is 1.64. In the case of `Clc1cc(Cl)c(-c2c(Cl)c(Cl)c(Cl)c(Cl)c2Cl)c(Cl)c1Cl`, the logP in data set [40] turned out to be 7.52. In turn, `Clc1cc(Cl)c2c(c1Cl)Oc1ccccc1O2` displayed a logP in data set [41] of 5.57. In turn, `Clc1cccc(-c2ccccc2)c1` yielded a logP in data set [42] of 4.71. In [43], `O=S(c1cc(Cl)cc(Cl)c1O)c1cc(Cl)cc(Cl)c1O` had a logP of 4.13. For `CC(SSc1ncc[nH]1)c1ccccc1` (stereo unspecified), in [44], the logD came to 3.39.

In turn, `c1ccc(Nc2ccccc2)cc1` returned a logD in data set [45] of 3.57.
